Experimental data as given in US9884863B2, “STAT3 inhibitor” (Board of Regents, The University of Texas System, priority 2013, dated 2018).

Key:
[1] = tested on: MDA-MB-231 and MDA-MB-468 cells; experiment: Colony formation assay; format: cell-based, human; details: 15 days, starting at 0.625 μM
Protocol: Colony Formation Assay: MDA-MB-468 and MDA-MB-231 cells were seeded in 6-well plates with a density of 800-3000 cells/well, respectively. […] The culture media with the compounds were changed every 72 h. After two weeks, the wells were washed twice with PBS buffer and 2 mL of 0.01% crystal violet staining buffer was added and incubated for 10 min. The wells were then washed with PBS for 5 min for three times, and allowed to dry. Photographs were then taken and the density of the entire culture well area was digitally measured using the GelCount™ instrument (Oxford Optronix, UK). Experiments were performed in triplicate and the density data were analyzed with one-way ANOVA using GraphPad Prizm 6 software. Error bars represent standard deviation.

[2] = tested on: MDA-MB-231; experiment: MTS cell proliferation assay, MDA-MB-231; format: cell-based, human; details: Homo sapiens, MDA-MB-231, 72 h, read-out: IC50 MDA-MB-231 (Table 4)
Procedure, shortened: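 Cells are exposed to DMSO or STAT3 inhibitors at 0.01-100 μM for 72 h, or at 1, 5 and 10 μM. Proliferation is read by MTS absorbance at 550 or 560 nm after 1 h at 37 °C. Each concentration is run in quadruplicate wells.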

[3] = format: in vivo; details: oral gavage 14 days; HJC0152 25 mg/kg, niclosamide 75 mg/kg
Protocol: Female nude mice at 4 to 6 wk of age were obtained from MDACC ERO facility. The mice were maintained in a barrier unit with 12 hours light-dark switch room and all materials were autoclaved. Freshly harvested MDA-MB-231 cells (2.5×10^6 cells per mouse, resuspended in 100 μl PBS) were injected into the 3rd mammary fat pad of the mice, and then mice were randomly assigned into control and treatment groups (≧6 mice per group). Treatment started when the xenograft mammary tumors reaches a volume of 200 mm^3. […] Mice were monitored daily for general health conditions (body weight, fur coat condition and posture) and toxicity (hair loss, skin rash, abdominal distension). […] Tumor volume was calculated as V=W^2×L/2, where L=longer diameter (mm) and W=width of short diameter (mm). […]
Female nude mice were obtained from MDACC and were used for orthotopic tumor studies at 4 to 6 weeks of age. […] Body weights and tumors volume were measured daily and tumor volume was calculated according to the formula V=0.5×L×W^2, where L=length (mm) and W=width (mm).
Twenty-two female nude mice (8 wks of age) were obtained from MDACC ERC Center. […] Body weights and tumors volume were measured daily and tumor volume calculated using the formula V=0.5×L×W^2, where L=length (mm) and W=width (mm) of xenograft tumors. Signs of toxicity were recorded individually. […]

[4] = tested on: MDA-MB-231 cells; experiment: Apoptosis assay (annexin V, flow cytometry); format: cell-based, human; details: dose-dependent; Example 3 numbering
Protocol: Cell Cycle Assay and Apoptosis Assay: Cell cycle and apoptosis kits (#MCH100106 and #MCH100105, Millipore, Mass.) were used. […] 24 and 48 h after drug treatment, both adherent and floating cells were collected, washed once with PBS and fixed in cold ethanol for at least 4 h before cell cycle analysis. The fixed cells were then washed twice with PBS and resuspended in 200 μL cell cycle detection reagent, incubated for 30 minutes in dark at room temperature. Cell cycle distribution was measured by the Muse Cell Analyzer with Muse™ Cell Cycle. Similarly, MDA-MB-231 cells with the same treatments were prepared for apoptosis assay. After washing with PBS, resuspended cells were incubated with 100 μL PBS containing 1% BSA and 100 μL Annexin V and dead cell detection reagent in dark for 20 minutes at room temperature. Apoptosis was measured immediately using the Muse Cell Analyzer with the Muse™ Apoptosis Program.

[5] = tested on: STAT family, STAT3-dependent genes and JAKs in MDA-MB-231 cells; experiment: Western blot analysis, MDA-MB-231 cells; format: cell-based, human; details: 24 h; Example 3 numbering
Protocol: Blocking STAT3 signaling in many different tumor cells leads to induce growth arrest and apoptosis (Turkson, J. et al., 2000; Bromberg, J., 2002; Zhang, X. et al., 2012).
Western Blot Analysis. Protein levels were determined by Western blot using the previously described methods (Shen, Q. et al., 2008). Total cell lysates were prepared from MDA-MB-231 cells. Protein concentrations were measured using the BCA Protein Assay Reagent (Pierce, Rockford, Ill., USA). Equal amounts of total cellular protein extract (40 μg) were resuspended in denaturing sample loading buffer (0.5 M Tris-HCl, pH 6.8, 10% SDS, 0.1% bromophenol blue, and 20% glycerol), separated by electrophoresis on a 10% polyacrylamide SDS-PAGE gel and then electrophoretically transferred to a nitrocellulose membrane (Thermo Scientific, Ill., USA) at 100 Volts for 1 h at 4° C. The membrane was then incubated in a blocking solution containing 5% non-fat milk and 1% Tween 20 in TBS for 1 h. The membrane was then incubated with antibodies specific for: phospho-STAT3-pY705 (1:3000, Epitomics, #2236-1), STAT3 (1:2000, Cell Signaling, #4904), Caspase-3-cleaved (1:2000, Epitomics, #1476-1), Cyclin D1 (1:10000, Epitomics, #2261-1) and β-actin (1:10000, Sigma, clone AC-15). An anti-rabbit or anti-mouse secondary antibody (Amersham, Piscataway, N.J.) was used at 1:4000 dilution. The Western blotted bands were visualized using ECL procedure according to the manufacturer's instructions (Amersham).

[6] = tested on: MDA-MB-231 xenograft tumors; experiment: MDA-MB-231 xenograft tumor growth in nude mice; format: in vivo; details: oral gavage daily for 14 days

## O=C(Nc1ccc([N+](=O)[O-])cc1Cl)c1cc(Cl)ccc1O [niclosamide, reference compound]
[1]
  colony formation: significant suppression of colony formation
[2]
  IC50: 790 nM
[3]
  toxicity signs in treated mice: No toxicity signs
[4]
  apoptosis, annexin V (Example 3): activated apoptosis
[5]
  phosphorylated STAT3 at Tyr-705 (Example 3): suppressed
  total STAT3 level (Example 3): reduced
[6]
  reduction in tumor growth, 75 mg/kg: 55%
